In patent US20080182834A1, “Multi-Nuclear Metal Complexes Partially Encapsulated by Cucurbit[7-12]Urils” (NEWSOUTH INNOVATIONS PTY LIMITED, priority 2004, published 2008):

Experiments:
[1] = test system: L1210 murine leukaemia cells; assay: In vitro cytotoxic activity against L1210 murine leukaemia cells; assay type: cell-based; settings: concentration required to inhibit cell growth by 50%
[2] = test system: L1210/DDP cisplatin resistant cells; assay: In vitro cytotoxic activity against cisplatin resistant L1210/DDP cells; assay type: cell-based, murine; settings: concentration required to inhibit cell growth by 50%

Substance	IC50 [1]	IC50 [2]
{trans-diamminebis{trans-diamminechloro(μ-1,6-hexanediamine)platinum(II)}platinum(II)}nitrate [BBR3464]	57 nM	24.5 nM
{trans-diamminechloro(μ-spermidine)platinum(II)}chloride [BBR3571]	11.5 nM	7.5 nM
{trans-diamminechloro(μ-dipyrazolylmethane)platinum(II)}chloride [Di-Pt]	3800 nM	8800 nM
